# Earlier results as cited in patent US20160184299A1, “COMBINATION COMPOSITION COMPRISING OXYCODONE AND ACETAMINOPHEN FOR RAPID ONSET AND EXTENDED DURATION OF ANALGESIA” (MALLINCKRODT LLC, priority 2011, published 2016).
# Tested on: hepatic GSH
# Conditions: mice, cited from earlier work
compound,measurement,setting,value
CC(=O)Nc1ccc(O)cc1 [acetaminophen],Time to onset of circulating hepatic GSH changes after administration,100 mg/kg to 600 mg/kg,≤ 15 min
same,Time of minimum GSH level after injection,all dose groups,2 h
